# Laboratory results as given in patent US8263736B2, “Compounds and their effects on feeding behaviour” (Imperial Innovations Limited, priority 2006, dated 2012).
# Experiments:
# Male C57BL/6 mice [1] = assay: Food intake in fasted mice after a single intraperitoneal injection (Example 1, 3 different PYY analogues); format: in vivo; conditions: single i.p. injection
# Method: (§1) Male C57BL/6 mice (20-30 g) were used for all mouse experiments. Mice were individually housed in IVC cages. Animals were randomised by weight and fasted overnight for 16 hrs before intraperitoneal injection at 9 am. Food intake was measured at 1, 2, 3, 4, 6, 8 and 24 hours post injection. All peptide solutions were prepared freshly the morning of the study and injected as 100 ul. All statistics are calculated using a one-way ANOVA with Dunnett's post-test or one-way ANOVA with Bonferroni post-test.
# (§2) A control of saline was used.
# Male C57BL/6 mice [2] = assay: Food intake in fasted mice, dose response experiment for PYY3-36Lys12Lauryl (Example 2); format: in vivo
# Method: as §1, §2
substance,measurement,setting,value
"PYY3-36Lys12Lauryl: PYY3-36 with the residue at position 12 replaced with a lysine residue coupled to a lauroyl group, SEQ ID NO: 14",overall reduction in cumulative food intake versus saline control,"Male C57BL/6 mice [1]; 120 nmol/kg, 24 hour period, fasted mice",6.1%
same,"persistence of effect on food intake compared with saline, PYY3-36 (30 nmol/kg) and PYY3-36Lys12 (60 and 120 nmol/kg)",Male C57BL/6 mice [1],most sustained effect
same,onset of food intake reduction compared with 60 nmol/kg native PYY3-36,"Male C57BL/6 mice [2]; 240 nmol/kg, mice",slower onset of food intake reduction
same,persistence of food intake reduction compared with 60 nmol/kg native PYY3-36,"Male C57BL/6 mice [2]; 240 nmol/kg, mice",greater persistence of effect
same,"food consumed in the first, second and third hour: relation to dose","Male C57BL/6 mice [2]; 60, 120 and 240 nmol/kg, single i.p. injection, 240 greater effect than 120, both greater than 60 nmol/kg",does-response relationship
same,time at which food intake (in a given time period) becomes greater than in saline control mice,"Male C57BL/6 mice [2]; single i.p. injection, PYY3-36Lys12Lauryl 60, 120, 240 nmol/kg, PYY3-36 30 nmol/kg, FIG. 5",around 6 hours
